Our source for the GI50 and TGI values is PubChem BioAssay (NCI).

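Cells were grown in 96-well plates and exposed to each compound for 48 hours at five concentrations; endpoints were interpolated linearly between bracketing concentrations, or set to the highest concentration if not reached. Abbreviation: GI50, concentration required for 50% inhibition of growth. TGI: concentration producing complete growth inhibition.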 Bounds are passed on as bounds.

Some test systems named below: 786-0 renal; A549 NSCLC; BT-549 breast; CAKI-1 renal; HOP-92 NSCLC; LOX IMVI melanoma; NCI-H23 lung; SF-268 CNS; SR leukemia; U251 CNS.
Holding throughout (assay): NCI tumour cell line growth inhibition, 48 h

Regarding `C=C1CO[C@@H]2C[C@@H]1CC/C(C)=C/CC/C(C)=C/CC[C@@]2(C)O`, the GI50 in the experiment with 786-0 renal was 17.5 µM; in the experiment on A549 NSCLC it was 15.4 µM; in the experiment on BT-549 breast, 24.6 µM; with CAKI-1 renal, 20.3 µM; in the experiment with HOP-92 NSCLC, 15.9 µM; with LOX IMVI melanoma, 2.25 µM. For the same molecule, the GI50 in the experiment on NCI-H23 lung is 21.8 µM; in the experiment with SF-268 CNS, 20.1 µM; in the experiment with SR leukemia, 1.71 µM; in the experiment on U251 CNS it was 17.9 µM. The TGI in the experiment with 786-0 renal came out at 32.9 µM; in the experiment with A549 NSCLC, 33 µM; in the experiment on BT-549 breast, 51.5 µM; with CAKI-1 renal, 41.8 µM; in the experiment with HOP-92 NSCLC it was 44.9 µM; in the experiment on LOX IMVI melanoma, 21.4 µM. The TGI in the experiment with NCI-H23 lung is 44.6 µM; in the experiment with SF-268 CNS it was 50.5 µM; in the experiment with SR leukemia, 12.8 µM; with U251 CNS, 32.4 µM.

On to `COc1ccc(-n2sc(=O)n(Cc3ccc(COC(=O)C(C)c4ccc(CC(C)C)cc4)cc3)c2=O)cc1` (centres undefined), for which the GI50 in the experiment on 786-0 renal was 6.13 µM; in the experiment on A549 NSCLC it was 9.56 µM; in the experiment with BT-549 breast, 2.91 µM; in the experiment on CAKI-1 renal, 1.36 µM; with HOP-92 NSCLC, 1.01 µM; with LOX IMVI melanoma it was 0.943 µM. In addition, the GI50 was 5.72 µM in the experiment on NCI-H23 lung, 5.82 µM in the experiment with SF-268 CNS, 1.46 µM with SR leukemia and 6.83 µM with U251 CNS. Further, the TGI in the experiment with 786-0 renal came out at 12.9 µM; in the experiment on A549 NSCLC it was 25.9 µM; in the experiment with BT-549 breast, 9.37 µM; with CAKI-1 renal, 5.37 µM; in the experiment with HOP-92 NSCLC it was 3.14 µM; in the experiment with LOX IMVI melanoma, 1.9 µM. Besides, the TGI is 14.1 µM with NCI-H23 lung, 12.2 µM in the experiment with SF-268 CNS, 50 µM in the experiment on SR leukemia and 14.5 µM with U251 CNS.

In the case of `COc1cccc(Nc2nccc(Nc3ccc4[nH]ncc4c3)n2)c1`, the GI50 in the experiment on 786-0 renal was 1.46 µM; in the experiment with A549 NSCLC it was 1.71 µM; in the experiment on BT-549 breast, 1.67 µM; with CAKI-1 renal it was 0.993 µM; with HOP-92 NSCLC, 1.45 µM; in the experiment on LOX IMVI melanoma, 1.44 µM. Also, the GI50 with NCI-H23 lung is 1.69 µM; in the experiment on SF-268 CNS it was 1.86 µM; in the experiment with SR leukemia it was 1.34 µM; with U251 CNS, 1.58 µM. Besides, the TGI in the experiment on 786-0 renal is 2.91 µM; in the experiment with A549 NSCLC it was 3.74 µM; with BT-549 breast, 3.71 µM; with CAKI-1 renal, 2.51 µM; in the experiment with HOP-92 NSCLC, 4.14 µM; in the experiment with LOX IMVI melanoma it was 3.19 µM. Also, the TGI in the experiment with NCI-H23 lung was 3.83 µM; with SF-268 CNS it was 5.89 µM; with SR leukemia, 4.93 µM; in the experiment with U251 CNS, 3.18 µM.

For `N#CC[C@H](C1CCCC1)n1cc(-c2ncnc3[nH]ccc23)cn1`, the GI50 is 12.9 µM in the experiment with 786-0 renal; 30.1 µM with A549 NSCLC; 12.8 µM in the experiment with BT-549 breast; 7.91 µM in the experiment with CAKI-1 renal; 6.81 µM in the experiment with HOP-92 NSCLC; 20.9 µM with LOX IMVI melanoma. In addition, the GI50 in the experiment on NCI-H23 lung was 19.6 µM; in the experiment on SF-268 CNS, 16.8 µM; with SR leukemia it was 4.04 µM; in the experiment on U251 CNS, 32.5 µM. For the same molecule, the TGI in the experiment on 786-0 renal was more than 91.3 µM; in the experiment on A549 NSCLC, more than 100 µM; in the experiment with BT-549 breast it was 36 µM; in the experiment on CAKI-1 renal, more than 100 µM; in the experiment on HOP-92 NSCLC, more than 100 µM; with LOX IMVI melanoma, more than 100 µM. The TGI is 75.7 µM with NCI-H23 lung, more than 77.9 µM with SF-268 CNS, 41.6 µM in the experiment with SR leukemia and more than 100 µM in the experiment on U251 CNS.

For the molecule `COC(=O)Nc1nc2ccc(Sc3ccccc3)cc2[nH]1`, the GI50 was 0.323 µM with 786-0 renal; 0.208 µM with A549 NSCLC; 1.04 µM with BT-549 breast; 0.225 µM in the experiment with CAKI-1 renal; 0.177 µM with HOP-92 NSCLC; 0.487 µM in the experiment with LOX IMVI melanoma. In addition, the GI50 was 0.29 µM with NCI-H23 lung, 1.44 µM with SF-268 CNS, 0.035 µM in the experiment with SR leukemia and 0.168 µM in the experiment on U251 CNS. Also, the TGI with 786-0 renal was 14.6 µM; in the experiment with A549 NSCLC, 5.96 µM; in the experiment on BT-549 breast, 18.8 µM; in the experiment with CAKI-1 renal, more than 43.5 µM; with HOP-92 NSCLC it was 7 µM; in the experiment with LOX IMVI melanoma it was 17.2 µM. Moreover, the values for the TGI in the experiment on NCI-H23 lung, with SF-268 CNS and with U251 CNS were 31 µM, 26.9 µM and 4.37 µM, respectively.

In the case of `CCOC(=O)C(Cc1ccc(OC)cc1)C(=O)OCC`, the GI50 in the experiment with 786-0 renal was 6.19 µM; with A549 NSCLC, 7.01 µM; in the experiment on BT-549 breast it was 3.25 µM; with CAKI-1 renal, 4.67 µM; in the experiment on HOP-92 NSCLC it was 6.93 µM; in the experiment on LOX IMVI melanoma it was 3.56 µM. The GI50 was 3.63 µM in the experiment on NCI-H23 lung, 3.73 µM in the experiment on SF-268 CNS, 1.88 µM in the experiment with SR leukemia and 4.79 µM with U251 CNS. The TGI in the experiment with 786-0 renal came to 18.7 µM; in the experiment with A549 NSCLC, 33.7 µM; with BT-549 breast, 13.5 µM; in the experiment on CAKI-1 renal, 16.6 µM; in the experiment with HOP-92 NSCLC, 30.4 µM; with LOX IMVI melanoma, 13.7 µM. Besides, the TGI worked out at 14.9 µM in the experiment with NCI-H23 lung, 15.2 µM with SF-268 CNS, 5.38 µM with SR leukemia and 17.9 µM in the experiment with U251 CNS.

Regarding `CC(C)CNc1nc(N=[N+]=[N-])nc(NCC(C)C)n1`, the GI50 is more than 10 µM in the experiment with 786-0 renal; more than 10 µM with A549 NSCLC; more than 10 µM in the experiment with BT-549 breast; more than 10 µM in the experiment with CAKI-1 renal; 7.89 µM in the experiment on HOP-92 NSCLC; more than 10 µM in the experiment on LOX IMVI melanoma. For the same molecule, the GI50 in the experiment on NCI-H23 lung, with SF-268 CNS, in the experiment with SR leukemia and in the experiment on U251 CNS was more than 10 µM each time. Further, the TGI with 786-0 renal, in the experiment with A549 NSCLC, in the experiment on BT-549 breast, with CAKI-1 renal, with HOP-92 NSCLC and in the experiment with LOX IMVI melanoma was more than 10 µM throughout. In addition, the TGI with NCI-H23 lung, in the experiment with SF-268 CNS, with SR leukemia and in the experiment with U251 CNS was more than 10 µM throughout.
